Experimental data published in patent US20240124491A1, “METHODS AND COMPOUNDS FOR TREATING FRIEDREICH'S ATAXIA” (Design Therapeutics, Inc., priority 2021, published 2024).

tested on: human FXN; experiment: EC50 assay: FXN mRNA expression by qRT-PCR in GM15850 cells after 48 hrs compound treatment; type: cell-based; conditions: Homo sapiens, 48 hrs incubation, hFXN expression normalized to hGAPDH (qRT-PCR), read-out: EC50 WT (nM, 48 hr)
Procedure: Cell culture: Cells were cultured in RPMI1640 medium+15% FBS. Cells were maintained at a density between 2e5/mL and 1e6/mL. Cells were centrifuged, resuspended in fresh medium, counted and plated at 150,000 cells per well in 100 uL in a non-coated, flat bottom tissue culture plate.
Compound treatment: 10 mM stock solution of FA GeneTAC was diluted 1:10 in DMSO followed by a 1:100 dilution in growth medium. Working solution was then further diluted to 10× desired final concentration of 150 nM. Compound was then diluted at a 1:3 ratio into growth medium containing 0.01% DMSO. 5-point, 3-fold dose response curve was generated. 11 μL of 1OX compound was added to wells containing 100 μL cell suspension of GM15850. 11 μL growth medium containing 0.01% DMSO was added to all wells not treated with FA GeneTAC. Cells were allowed to incubate for 48 hrs prior to cell lysis using guanidine isothiocyanate solution.
RNA isolation: Total RNA was isolated and purified in 384-well column filter plates using chaotropic salt.
qRT-PCR: qRT-PCR reactions were assembled using AgPath-ID reagents (Thermo Fisher) using 6 uL mastermix and 4 μL RNA. qRT-PCR TaqMan primer probe sets against human FXN (Assay ID Hs01075496_m1) and human GAPDH (Assay ID Hs00266705_g1) were used to measure the intended targets. qRT-PCR was run on the ThermoFisher QuantStudio 6 PRO instrument using the manufacturer's recommended cycling conditions.
Data analysis: qPCR data was analyzed using Thermo Fisher Design and Analysis software. Data was exported to Excel and hFXN expression was normalized to hGAPDH expression
A<100 nM; B is 100 nM to 500 nM; C>500 nM.

`Cc1sc2c(c1C)C(c1ccc(Cl)cc1)=N[C@@H](CC(=O)Nc1ccc(C#CC3CCN(CCOCCOCCOCCOCCNC(=O)CCNC(=O)c4nc(NC(=O)CCNC(=O)c5cc(NC(=O)c6nc(NC(=O)CCNC(=O)c7cc(NC(=O)c8nccn8C)cn7C)cn6C)cn5C)cn4C)CC3)cc1)c1nnc(C)n1-2` [Compound 13] and `Cc1sc2c(c1C)C(c1ccc(Cl)cc1)=N[C@@H](CC(=O)Nc1ccc(C#CC#CCNCCOCCOCCOCCOCCNC(=O)CCNC(=O)c3nc(NC(=O)CCNC(=O)c4cc(NC(=O)c5nc(NC(=O)CCNC(=O)c6cc(NC(=O)c7nccn7C)cn6C)cn5C)cn4C)cn3C)cc1)c1nnc(C)n1-2` [Compound 16] cannot be ordered by EC50: less than 100 nM for the first, less than 100 nM for the second.

First: Cc1sc2c(c1C)C(c1ccc(Cl)cc1)=N[C@@H](CC(=O)Nc1ccc(C#CC#CCNCCOCCOCCOCCOCCOCCOCCNC(=O)CCNC(=O)c3nc(NC(=O)CCNC(=O)c4cc(NC(=O)c5nc(NC(=O)CCNC(=O)c6cc(NC(=O)c7nccn7C)cn6C)cn5C)cn4C)cn3C)cc1)c1nnc(C)n1-2 [Compound 14]
Second: Cc1sc2c(c1C)C(c1ccc(Cl)cc1)=N[C@@H](CC(=O)Nc1ccc(C#CC#CCNCCOCCOCCOCCOCCOCCNC(=O)CCNC(=O)c3nc(NC(=O)CCNC(=O)c4cc(NC(=O)c5nc(NC(=O)CCNC(=O)c6cc(NC(=O)c7nccn7C)cn6C)cn5C)cn4C)cn3C)cc1)c1nnc(C)n1-2 [Compound 15]
The EC50 of the first is higher: 100 to 500 nM for the first, less than 100 nM for the second. The second is the more potent here.

`Cc1sc2c(c1C)C(c1ccc(Cl)cc1)=N[C@@H](CC(=O)N1CCN(CC3CCN(CCOCCOCCOCCOCCOCCN4CCC(CN5CCN(C(=O)CCNC(=O)c6nc(NC(=O)CCNC(=O)c7cc(NC(=O)c8nc(NC(=O)CCNC(=O)c9cc(NC(=O)c%10nccn%10C)cn9C)cn8C)cn7C)cn6C)CC5)CC4)CC3)CC1)c1nnc(C)n1-2` [Compound 18] and `Cc1sc2c(c1C)C(c1ccc(Cl)cc1)=N[C@@H](CC(=O)N1CCN(CC3CCN(CCOCCOCCOCCOCCN4CCC(CN5CCN(C(=O)CCNC(=O)c6nc(NC(=O)CCNC(=O)c7cc(NC(=O)c8nc(NC(=O)CCNC(=O)c9cc(NC(=O)c%10nccn%10C)cn9C)cn8C)cn7C)cn6C)CC5)CC4)CC3)CC1)c1nnc(C)n1-2` [Compound 19] cannot be ordered by EC50: greater than 500 nM for the first, greater than 500 nM for the second.

`Cc1sc2c(c1C)C(c1ccc(Cl)cc1)=N[C@@H](CC(=O)N1CCN(CC3CCN(CCOCCOCCOCCN4CCC(CN5CCN(C(=O)CCNC(=O)c6nc(NC(=O)CCNC(=O)c7cc(NC(=O)c8nc(NC(=O)CCNC(=O)c9cc(NC(=O)c%10nccn%10C)cn9C)cn8C)cn7C)cn6C)CC5)CC4)CC3)CC1)c1nnc(C)n1-2` [Compound 20] and `Cc1sc2c(c1C)C(c1ccc(Cl)cc1)=N[C@@H](CC(=O)NC1CCN(CCOCCOCCOCCN3CCN(CC4CCN(CCOCCNC(=O)CCNC(=O)c5nc(NC(=O)CCNC(=O)c6cc(NC(=O)c7nc(NC(=O)CCNC(=O)c8cc(NC(=O)c9nccn9C)cn8C)cn7C)cn6C)cn5C)CC4)CC3)CC1)c1nnc(C)n1-2` [Compound 33] cannot be ordered by EC50: greater than 500 nM for the first, greater than 500 nM for the second.

Compared with `Cc1sc2c(c1C)C(c1ccc(Cl)cc1)=N[C@@H](CC(=O)N[C@H]1CC[C@H](N(C)CCOCCOCCOCCN3CCN(CCOCCOCCOCCNC(=O)CCNC(=O)c4nc(NC(=O)CCNC(=O)c5cc(NC(=O)c6nc(NC(=O)CCNC(=O)c7cc(NC(=O)c8nccn8C)cn7C)cn6C)cn5C)cn4C)CC3)CC1)c1nnc(C)n1-2` [Compound 21], `Cc1sc2c(c1C)C(c1ccc(Cl)cc1)=N[C@@H](CC(=O)NC1CCN(CCOCCOCCOCCN3CCN(CCOCCOCCOCCNC(=O)CCNC(=O)c4nc(NC(=O)CCNC(=O)c5cc(NC(=O)c6nc(NC(=O)CCNC(=O)c7cc(NC(=O)c8nccn8C)cn7C)cn6C)cn5C)cn4C)CC3)CC1)c1nnc(C)n1-2` [Compound 23] is lower in EC50: greater than 500 nM for the first, 100 to 500 nM for the second.

Going from `Cc1sc2c(c1C)C(c1ccc(Cl)cc1)=N[C@@H](CC(=O)N[C@H]1CC[C@H](N(C)CCOCCOCCOCCOCCOCCOCCOCCOCCNC(=O)CCNC(=O)c3nc(NC(=O)CCNC(=O)c4cc(NC(=O)c5nc(NC(=O)CCNC(=O)c6cc(NC(=O)c7nccn7C)cn6C)cn5C)cn4C)cn3C)CC1)c1nnc(C)n1-2` [Compound 22] to `Cc1sc2c(c1C)C(c1ccc(Cl)cc1)=N[C@H](CC(=O)NC1CCN(CCOCCOCCOCCOCCOCCC(=O)NCCCN(C)CCCNC(=O)CCNC(=O)c3nc(NC(=O)CCNC(=O)c4cc(NC(=O)c5nc(NC(=O)CCNC(=O)c6cc(NC(=O)c7nccn7C)cn6C)cn5C)cn4C)cn3C)CC1)c1nnc(C)n1-2` [Compound 39], the EC50 rises from less than 100 nM to greater than 500 nM. The first is the more potent here.

Compared with `COc1ccc2c(c1)C(c1ccc(Cl)cc1)=N[C@@H](CC(=O)NC1CCN(CCOCCOCCOCCN3CCN(CCOCCOCCOCCNC(=O)CCNC(=O)c4nc(NC(=O)CCNC(=O)c5cc(NC(=O)c6nc(NC(=O)CCNC(=O)c7cc(NC(=O)c8nccn8C)cn7C)cn6C)cn5C)cn4C)CC3)CC1)c1nnc(C)n1-2` [Compound 24], `COc1ccc2c(c1)C(c1ccc(Cl)cc1)=N[C@@H](CC(=O)N1CCN(CCOCCOCCOCCN3CCN(CCOCCOCCOCCNC(=O)CCNC(=O)c4nc(NC(=O)CCNC(=O)c5cc(NC(=O)c6nc(NC(=O)CCNC(=O)c7cc(NC(=O)c8nccn8C)cn7C)cn6C)cn5C)cn4C)CC3)CC1)c1nnc(C)n1-2` [Compound 28] is higher in EC50: 100 to 500 nM for the first, greater than 500 nM for the second.

`Cc1sc2c(c1C)C(c1ccc(Cl)cc1)=N[C@@H](CC(=O)N1CC3(CCN(CCOCCOCCOCCN4CCN(CCOCCOCCOCCNC(=O)CCNC(=O)c5nc(NC(=O)CCNC(=O)c6cc(NC(=O)c7nc(NC(=O)CCNC(=O)c8cc(NC(=O)c9nccn9C)cn8C)cn7C)cn6C)cn5C)CC4)CC3)C1)c1nnc(C)n1-2` [Compound 25] and `Cc1sc2c(c1C)C(c1ccc(Cl)cc1)=N[C@@H](CC(=O)N1CCN(CCOCCOCCOCCN3CCN(CCOCCOCCOCCNC(=O)CCNC(=O)c4nc(NC(=O)CCNC(=O)c5cc(NC(=O)c6nc(NC(=O)CCNC(=O)c7cc(NC(=O)c8nccn8C)cn7C)cn6C)cn5C)cn4C)CC3)CC1)c1nnc(C)n1-2` [Compound 27] cannot be ordered by EC50: greater than 500 nM for the first, greater than 500 nM for the second.

`COc1ccc2c(c1)C(c1ccc(Cl)cc1)=N[C@@H](CC(=O)N1CC3(CCN(CCOCCOCCOCCN4CCN(CCOCCOCCOCCNC(=O)CCNC(=O)c5nc(NC(=O)CCNC(=O)c6cc(NC(=O)c7nc(NC(=O)CCNC(=O)c8cc(NC(=O)c9nccn9C)cn8C)cn7C)cn6C)cn5C)CC4)CC3)C1)c1nnc(C)n1-2` [Compound 26] and `COc1ccc2c(c1)C(c1ccc(Cl)cc1)=N[C@@H](CC(=O)N1CCN(CC3CCN(CCOCCOCCOCCOCCOCCOCCOCCNC(=O)CCNC(=O)c4nc(NC(=O)CCNC(=O)c5cc(NC(=O)c6nc(NC(=O)CCNC(=O)c7cc(NC(=O)c8nccn8C)cn7C)cn6C)cn5C)cn4C)CC3)CC1)c1nnc(C)n1-2` [Compound 46] cannot be ordered by EC50: greater than 500 nM for the first, greater than 500 nM for the second.

First: Cc1sc2c(c1C)C(c1ccc(Cl)cc1)=N[C@@H](CC(=O)NC1CCN(CCOCCOCCOCCN3CCN(CCN4CCN(CCOCCNC(=O)CCNC(=O)c5nc(NC(=O)CCNC(=O)c6cc(NC(=O)c7nc(NC(=O)CCNC(=O)c8cc(NC(=O)c9nccn9C)cn8C)cn7C)cn6C)cn5C)CC4)CC3)CC1)c1nnc(C)n1-2 [Compound 29]
Second: Cc1sc2c(c1C)C(c1ccc(Cl)cc1)=N[C@@H](CC(=O)NC1CCN(CCOCCN3CCC(CN4CCN(CCOCCOCCOCCNC(=O)CCNC(=O)c5nc(NC(=O)CCNC(=O)c6cc(NC(=O)c7nc(NC(=O)CCNC(=O)c8cc(NC(=O)c9nccn9C)cn8C)cn7C)cn6C)cn5C)CC4)CC3)CC1)c1nnc(C)n1-2 [Compound 35]
The EC50 of the first is higher: greater than 500 nM for the first, 100 to 500 nM for the second. The second is the more potent here.

Going from `COc1ccc2c(c1)C(c1ccc(Cl)cc1)=N[C@@H](CC(=O)NC1CCN(CCOCCOCCOCCN3CCN(CC4CCN(CCOCCNC(=O)CCNC(=O)c5nc(NC(=O)CCNC(=O)c6cc(NC(=O)c7nc(NC(=O)CCNC(=O)c8cc(NC(=O)c9nccn9C)cn8C)cn7C)cn6C)cn5C)CC4)CC3)CC1)c1nnc(C)n1-2` [Compound 34] to `COc1ccc2c(c1)C(c1ccc(Cl)cc1)=N[C@@H](CC(=O)N1CCC(C#CC#CCNCCOCCOCCOCCOCCOCCNC(=O)CCNC(=O)c3nc(NC(=O)CCNC(=O)c4cc(NC(=O)c5nc(NC(=O)CCNC(=O)c6cc(NC(=O)c7nccn7C)cn6C)cn5C)cn4C)cn3C)CC1)c1nnc(C)n1-2` [Compound 41], the EC50 falls from greater than 500 nM to less than 100 nM.

First: Cc1sc2c(c1C)C(c1ccc(Cl)cc1)=N[C@@H](CC(=O)N1CCC(C#CC#CCNCCOCCOCCOCCOCCOCCNC(=O)CCNC(=O)c3nc(NC(=O)CCNC(=O)c4cc(NC(=O)c5nc(NC(=O)CCNC(=O)c6cc(NC(=O)c7nccn7C)cn6C)cn5C)cn4C)cn3C)CC1)c1nnc(C)n1-2 [Compound 40]
Second: Cc1sc2c(c1C)C(c1ccc(Cl)cc1)=N[C@@H](CC(=O)Nc1ccc(C#CC#CCN(CCOCCOCCOCCOCCOCCNC(=O)CCNC(=O)c3nc(NC(=O)CCNC(=O)c4cc(NC(=O)c5nc(NC(=O)CCNC(=O)c6cc(NC(=O)c7nccn7C)cn6C)cn5C)cn4C)cn3C)CCC3CCN(C)CC3)cc1)c1nnc(C)n1-2 [Compound 43]
The EC50 of the first is lower: less than 100 nM for the first, 100 to 500 nM for the second. The first is the more potent here.

`Cc1sc2c(c1C)C(c1ccc(Cl)cc1)=N[C@@H](CC(=O)Nc1ccc(C#CC#CCN(CCN3CCN(C)CC3)C(=O)COCCOCCOCCOCCOCCNC(=O)CCNC(=O)c3nc(NC(=O)CCNC(=O)c4cc(NC(=O)c5nc(NC(=O)CCNC(=O)c6cc(NC(=O)c7nccn7C)cn6C)cn5C)cn4C)cn3C)cc1)c1nnc(C)n1-2` [Compound 42] gave an EC50 of less than 100 nM.
